From patent US8017649B2, “Flavonoid compounds and uses thereof” (Howard Florey Institute of Experimental Physiology and …, priority 2005, dated 2011)
Entries after “also recorded” stand apart in the source; their conditions may differ.

How the values were obtained:
[1] = system: superoxide anions generated in rat aorta; experiment: Superoxide anion production in rat isolated aortic segments (lucigenin chemiluminescence, NADPH); type: cell-based; settings: for superoxide levels: highest concentration tested (0.1 mM)
Procedure: Superoxide anion production in rat isolated aortic segments was determined using lucigenin chemiluminescence. Aortic rings were prepared as described above and then placed in ice-cold Krebs-(N-[2-Hydroxyethyl]piperazine-N′-[2-ethanesulfonic acid] (HEPES buffer) (composition (mM); NaCl 99.0, KCl 4.7, KH2PO4 1.0, MgSO4·7H2O 1.2, D-glucose 11.0, NaHCO3 25.0, CaCl2·2H2O 2.5, Na-HEPES 20.0). Aortic rings were pre-incubated for 45 minutes at 37° C. with a pH 7.4, in Krebs-HEPES buffer containing diethylthiocarbamic acid (DETCA, 10^−3 M) to inactivate superoxide dismutase and β-nicotinamide adenine dinucleotide phosphate (NADPH, 10^−4 M) as a substrate for NADPH oxidase and either 3′,4′-dihydroxyflavonol (10^−4 M) as a positive control, vehicle, 3-hydroxyflavone-3-hemiadipate, 3′,4′-dihydroxy-3-hemiadipate, 3-hydroxyflavone-3-phosphate (10^−8-10^−4 M). Background photon emission was measured for 12 cycles in a 96-well Optiplate containing 0.3 ml per well of Krebs-HEPES buffer together with lucigenin (5×10^−5 M) and vehicle or flavonoid (10^−8-10^−4 M). Each cycle was counted every one minute. After background reading was completed the incubated aortic rings were transferred to the appropriate wells and photon emission was recounted as described above. The tissue was then placed in a 65° C. oven for 48 hours to allow superoxide production to be normalised to dry tissue weight.
The effects of vehicle, 3′,4′-dihydroxyflavone-3-hemiadipate (21) (DiOHF3HA, 10^−8 M-10^−4 M) and DiOHF (10^−4 M) in the presence and absence of Butyryl cholinesterase (BuCHE), 100, 300 and 1000 U/L) on the level of superoxide anions generated in rat isolated aortic segments in the presence of NADPH was expressed as a percentage of control. The method used was as described above except for the addition of the butyryl cholinesterase.
The effect of vehicle, 3-hydroxyflavone-3-phosphate (10^−8 to 10^−4 M) in the presence or absence of phosphatase (1000 U/L) on the level of superoxide anions generated in rat aorta in the presence of NADPH expressed as a percentage of control was determined as described above for the 3′,4′-dihydroxyflavone-3-hemiadipate.

[2] = system: endothelium intact aortic rings; experiment: Effect on ACh relaxation of precontracted rat aortic rings; type: cell-based; settings: substance alone
Procedure: (§1) After wash out and re-equilibration for 30 min, the aortic rings were then submaximally precontracted with PE and U46619, which were used to produce an active tension of 45-60% of the KPSS-induced maximum contraction. When investigating the effects of the flavonoids, flavonol, flavone-3-hemiadipate (F3HA), 3′, 4′-dihydroxyflavone, 3′,4′-dihydroxyflavonol, 3′,4′-dihydroxyflavone-3-hemiadipate (DiOHF3HA), and flavone-3-phosphate (F3P) on vasorelaxant responses, rings were incubated with one of the compounds for 20 mins before they were precontracted submaximally, followed by a cumulative-concentration response curve to ACh (100 nM-10 μM) or SNP ([…]). In experiments using F3P 1000U/L phosphatase was used in some experiments to cleave the phosphate. Some experiments were conducted in the presence and absence of butyryl cholinesterase (BuCHE, 1000 U/L) to cleave the adipate in DiOHF3HA and F3HA.

[3] = system: endothelium intact aortic rings; experiment: Ca2+-induced contraction of rat aortic rings in Ca2+-free high-K+ solution; type: cell-based
Procedure: To determine the effect of flavonoids on responses to the influx of extracellular Ca^2+, contractile responses to exogenous application of Ca^2+ were examined in the presence of flavonoids in Ca^2+-free high-K^+ solution (60 mM, KPSS). Aortic rings were initially equilibrated at a resting tension of 1 g in normal Ca^2+-free PSS for 45 minutes. The bath medium was then replaced with Ca^2+-free KPSS for 45 minutes to determine a reference contraction to Ca^2+ (3×10^−3 M). Following a 30 minute re-equilibration period with Ca^2+-free PSS, the cumulative contractile responses to Ca^2+ (10^−5−3×10^−3 M) were determined in KPSS in the presence of a range of concentrations (10^−8-10^−4 M) of vehicle, 3′,4′-dihydroxyflavonol, 3-hydroxyflavone-3-hemiadipate, 3′,4′-dihydroxy-3-hemiadipate, 3-hydroxyflavone-3-phosphate. A 20 minute incubation period was allowed for the flavonoids before examining the responses to Ca^2+.
To determine the effect of flavonoids on responses to the influx of extracellular Ca^2+, contractile responses to exogenous application of Ca^2+ were examined in the presence of flavonoids in Ca^2+-free high-K^+ solution (60 mM, K+-PSS). Aortic rings were initially equilibrated at a resting tension of 1 g in Ca^2+-free PSS for 45 minutes. The bath medium was then replaced with Ca^2+-free K+-PSS for 45 minutes to determine a reference contraction to added Ca^2+ (3 mM). Following a 30 minute re-equilibration period with Ca^2+-free PSS, the cumulative contractile responses to Ca^2+ (10^−5−3×10^−3 M) were determined in K^+ PSS in the presence of vehicle (0.1% DMSO), or a range of concentrations (10^−7-10^−4 M) of 3′-hydroxyflavonol, F3HA, DiOHF3HA or F3P. A 20 minute incubation period was allowed for the flavonoids before examining the responses to Ca^2+. Experiments were conducted in the presence and absence of BuCHE (1000 U/L) to cleave the adipate in F3HA and DiOHF3HA. In experiments using F3P, phosphatase (1000 U/L) was used in some experiments to cleave the phosphate.

[4] = system: aortic rings; experiment: Effect on SNP relaxation of precontracted rat aortic rings; type: cell-based; settings: substance alone
Procedure: as §1

[5] = system: rat aorta precontracted with PE; experiment: Direct relaxation of PE/U46619-precontracted rat aortic rings; type: cell-based; settings: substance alone
Procedure: Following testing of endothelial integrity, rings were repeatedly washed and re-equilibrated for 30 minutes before the addition of PE (10^−8−2×10^−7 M) and 9,11-dideoxy-9α, 11α-epoxymethano-prostaglandin F2α (U46619, 10^−9-10^−8 M) to produce an active force in the range of 40-60% of KPSS-induced contraction. The level of precontraction was matched between the various groups by adjusting the concentrations of PE and U46619. Cumulative concentration-response curves in the range 10^−8-10^−4 M were conducted for 3′,4′-dihydroxyflavonol, 3-hydroxyflavone-3-hemiadipate, 3′,4′-dihydroxy-3-hemiadipate, 3-hydroxyflavone-3-phosphate.
Experiments were conducted in the presence of an esterase, butyryl cholinesterase (BuCHE, 1000 U/L) for the hemiadipate derivates and a phosphatase 1000 U/L) in the case of the phosphate derivatives.
Following testing of endothelial integrity, rings were repeatedly washed and re-equilibrated for 30 minutes before the addition of PE (10^−8−2×10^−7 M) and 9,11-dideoxy-9α, 11α-epoxymethano-prostaglandin F2α (U46619, 10^−9-10^−7 M) to produce an active force in the range of 40-60% of KPSS-induced contraction. Cumulative concentration-response curves in the range 10^−7-10^−4 M were conducted for vehicle, 3′-hydroxyflavonol, F3HA, DiOHF3HA, F3P. Experiments were conducted in the presence and absence of 1000 U/L BuCHE to cleave the adipate in F3HA and DiOHF3HA. In experiments using F3P 1000 U/L phosphatase was used in some experiments to cleave the phosphate.

[6] = system: anaesthetised rats; experiment: Arterial pressure and heart rate in anaesthetised rats after intravenous injection; type: in vivo, rat; settings: intravenous, anaesthetised rats
Procedure: A unit dosage of an aqueous solution of 3-hydroxyflavone-3-hemiadipate (15) was administered to a group of male anesthetized Sprague Dawley rats intravenously and the blood pressure monitored over a period of time.
Male Sprague-Dawley rats (250-350 g) were anaesthetised with pentobarbitone sodium (60 mg kg^−1, ip). The trachea was isolated and cannulated with polyethylene tracheal tube (I.D. 2.0 mm), and the rat was allowed to breathe spontaneously.
The right carotid artery was cannulated and connected with a heparinised saline filled cannula (O.D. 0.75, I.D, 0.58 mm) and connected to a pressure transducer. Mean and phasic arterial pressure were continuously measured and recorded on a polygraph. The heart rate, was derived from the phasic arterial pressure using a tachometer.
DiOHF3HA ([…]) was injected intravenously, allowing at least 30 min between injections, and the peak changes in mean arterial pressure and heart rate measured. […] In a separate group of experiments ACh (0.3 mg/kg iv) and phenylephrine (PE, […]) were injected before and 30 minutes after DiOHF3HA (3 mg/kg iv), a time when arterial pressure and heart rate had returned to control levels. […]

[7] = substance alone, no added esterase/phosphatase, up to 10^−4 M, NADPH

O=c1c(O)c(-c2ccccc2)oc2ccccc12 [Flavonol, reference compound]
superoxide levels [1]: 36±3 % of control
effect on superoxide generation [1, 7]: concentration dependent decreases in superoxide levels
effect on relaxant response to ACh [2]: did not affect
effect on Ca^2+-induced contraction ([3]; alone, over the concentration range tested): concentration dependent decreases in calcium-induced contraction
effect on relaxant response to SNP [4]: did not affect

O=c1cc(-c2ccc(O)c(O)c2)oc2ccccc12 [DiOHFne, 3′,4′-dihydroxyflavone, reference compound]
superoxide levels [1]: 36±3 % of control
effect on superoxide generation [1, 7]: concentration dependent decreases in superoxide levels
direct relaxing effect on precontracted vessels [5]: concentration-dependent relaxation of rat aorta which was weaker than the effect of DiOHF

O=C(O)CCCCC(=O)Oc1c(-c2ccccc2)oc2ccccc2c1=O [F3HA, Flavone-3-hemiadipate]
change in mean arterial pressure (MAP) [6]: significant reduction in the blood pressure
effect on superoxide generation ([1]; in the presence of cleaving enzyme (BuCHE for hemiadipates, phosphatase for phosphate, 1000 U/L)): concentration dependent increase in the inhibitory effect
effect on superoxide generation ([1]; in the presence of cleaving enzyme (BuCHE for hemiadipates, phosphatase for phosphate, 1000 U/L), listed as flavone-3-hemiadipate): concentration-dependent inhibitory effect
effect on superoxide generation [1, 7]: no inhibitory effect on superoxide generation; also recorded: no antioxidant or vascular activity
effect on superoxide generation ([1]; substance alone, no added esterase/phosphatase, up to 10^−4 M, NADPH, listed as Flavone-3-hemiadipate): no effect on the superoxide production
effect on superoxide generation ([1]; substance alone, no added esterase/phosphatase, up to 10^−4 M, NADPH, listed as flavone-3-hemiadipate): no effect on the superoxide production at any concentration
effect on Ca^2+-induced contraction ([3]; alone, highest concentration 10^−4 M): only inhibited contractile responses to increasing concentrations of extracellular calcium at the highest concentration tested
effect on Ca^2+-induced contraction ([3]; alone, highest concentration 10^−4 M, listed as flavone-3-hemiadipate): some inhibitory effect
effect on Ca^2+-induced contraction ([3]; alone, lower concentrations 10^−8 to 10^−5 M): did not effect Ca^2+ contraction
effect on Ca^2+-induced contraction ([3]; in the presence of BuCHE or phosphatase (1000 U/L)): inhibit calcium-induced contraction

B1: BuCHE: butyryl cholinesterase, esterase used to cleave the adipate (protein, UniProt P06276 29-602, looked up)
Cholinesterase: EDDIIIATKNGKVRGMNLTVFGGTVTAFLGIPYAQPPLGRLRFKKPQSLTKWSDIWNATKYANSCCQNIDQSFPGFHGSEMWNPNTDLSEDCLYLNVWIPAPKPKNATVLIWIYGGGFQTGTSSLHVYDGKFLARVERVIVVSMNYRVGALGFLALPGNPEAPGNMGLFDQQLALQWVQKNIAAFGGNPKSVTLFGESAGAASVSLHLLSPGSHSLFTRAILQSGSFNAPWAVTSLYEARNRTLNLAKLTGCSRENETEIIKCLRNKDPQEILLNEAFVVPYGTPLSVNFGPTVDGDFLTDMPDILLELGQFKKTQILVGVNKDEGTAFLVYGAPGFSKDNNSIITRKEFQEGLKIFFPGVSEFGKESILFHYTDWVDDQRPENYREALGDVVGDYNFICPALEFTKKFSEWGNNAFFYYFEHRSSKLPWPEWMGVMHGYEIEFVFGLPLERRDNYTKAEEILSRSIVKRWANFAKYGNPNETQNNSTSWPVFKSTEQKYLTLNTESTRIMTKLRAQQCRFWTSFFPKVLEMTGNIDEAEWEWKAGFHRWNNYMMDWKNQFNDYTSKKESCVGL
direct relaxing effect on precontracted vessels [5]: no effect on PE precontracted vessels
